Data from the supplement of paper PMC10307832.

Columns and labels:
Assay in all cases: relative viability (nuclei count vs DMSO), 5 days (fraction); higher = more cells survive
Bortezomib + Decitabine = compound: CC(C)C[C@H](NC(=O)[C@H](Cc1ccccc1)NC(=O)c1cnccn1)B(O)O [Bortezomib] + Nc1ncn([C@H]2C[C@H](O)[C@@H](CO)O2)c(=O)n1 [Decitabine] (partner 2 µM)
In short: (§1)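 Relative viability is defined as nuclei in treated wells over nuclei in vehicle wells. Duplicate plates were run and medians reported. Lung cancer cell lines in 1536-well plates were dosed by pin tool one day after seeding, with one drug or with a fixed anchor-drug dose plus five library-drug doses (not always all listed) in √10 steps, and nuclei were counted after 5 days.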

Bortezomib + Tozasertib = compound: CC(C)C[C@H](NC(=O)[C@H](Cc1ccccc1)NC(=O)c1cnccn1)B(O)O [Bortezomib] + Cc1cc(Nc2cc(N3CCN(C)CC3)nc(Sc3ccc(NC(=O)C4CC4)cc3)n2)n[nH]1 [Tozasertib] (partner 0.1 µM)
In short: as §1

[1] = compound: CC1=CC(=NN1)NC2=CC(=NC(=N2)/C=C/C3=CC=CC=C3)N4CCN(CC4)C + C[C@@H](Oc1cc(-c2cnn(C3CCNCC3)c2)cnc1N)c1c(Cl)ccc(F)c1Cl [Crizotinib] (partner 1 µM)
In short: as §1

Bortezomib + Navitoclax = compound: CC(C)C[C@H](NC(=O)[C@H](Cc1ccccc1)NC(=O)c1cnccn1)B(O)O [Bortezomib] + CC1(C)CCC(c2ccc(Cl)cc2)=C(CN2CCN(c3ccc(C(=O)NS(=O)(=O)c4ccc(N[C@H](CCN5CCOCC5)CSc5ccccc5)c(S(=O)(=O)C(F)(F)F)c4)cc3)CC2)C1 [Navitoclax] (partner 0.5 µM)
In short: as §1

Cell Line	relative viability (Bortezomib + Decitabine; first compound 0.0002 µM)	relative viability (Bortezomib + Decitabine; first compound 0.000632 µM)	relative viability (Bortezomib + Decitabine; first compound 0.002 µM)	relative viability (Bortezomib + Decitabine; first compound 0.006325 µM)	relative viability (Bortezomib + Decitabine; first compound 0.02 µM)	relative viability (Bortezomib + Tozasertib; first compound 0.0002 µM)	relative viability (Bortezomib + Tozasertib; first compound 0.000632 µM)	relative viability (Bortezomib + Tozasertib; first compound 0.002 µM)	relative viability (Bortezomib + Tozasertib; first compound 0.006325 µM)	relative viability (Bortezomib + Tozasertib; first compound 0.02 µM)	relative viability ([1]; first compound 0.08 µM)	relative viability ([1]; first compound 0.253 µM)	relative viability ([1]; first compound 0.8 µM)	relative viability ([1]; first compound 2.53 µM)	relative viability ([1]; first compound 8 µM)	relative viability (Bortezomib + Navitoclax; first compound 0.0002 µM)	relative viability (Bortezomib + Navitoclax; first compound 0.000632 µM)	relative viability (Bortezomib + Navitoclax; first compound 0.002 µM)	relative viability (Bortezomib + Navitoclax; first compound 0.006325 µM)	relative viability (Bortezomib + Navitoclax; first compound 0.02 µM)
NCI-H1651	0.659	0.732	0.619	0.665	0.172	0.694	0.72	0.619	0.099	0.101	0.839	0.911	0.808	0.738	0.482	1.17	0.958	0.263	0.14	0.101
NCI-H1666	0.782	0.839	0.728	0.646	0.477	0.558	0.664	0.51	0.296	0.261	0.969	0.863	0.822	0.453	0.187	0.832	1.08	0.848	0.211	0.196
NCI-H1734	0.552	0.503	0.462	0.12	0.0968	0.263	0.295	0.276	0.133	0.093	0.632	0.722	0.522	0.331	0.123	0.86	0.872	0.662	0.112	0.0892
NCI-H1755	0.699	0.716	0.734	0.452	0.237	0.571	0.612	0.566	0.193	0.157	0.863	0.929	0.78	0.593	0.105	0.975	0.979	0.917	0.269	0.165
NCI-H1915	0.266	0.256	0.254	0.14	0.059	0.428	0.448	0.416	0.0502	0.0519	0.868	0.92	0.869	0.593	0.248	0.676	0.764	0.799	0.0915	0.0811
NCI-H1944	0.414	0.429	0.461	0.402	0.248	0.234	0.248	0.247	0.195	0.136	1.04	1.24	1.11	0.62	0.275	1.06	0.992	1.12	1.05	0.887
NCI-H1975	0.411	0.371	0.176	0.126	0.115	0.676	0.831	0.099	0.0653	0.088	0.91	0.958	0.548	0.186	0.147	1.05	1.05	0.315	0.136	0.133
NCI-H1993	0.634	0.717	0.622	0.319	0.374	0.595	0.635	0.576	0.454	0.448	0.883	–	0.739	0.551	0.526	0.94	0.982	1.01	0.52	0.48
NCI-H2009	0.392	0.431	0.388	0.101	0.0757	0.725	0.807	0.704	0.229	0.0821	1.06	0.94	1.02	0.534	0.22	1.16	1.1	1.15	0.0798	0.0607
NCI-H2023	0.216	0.236	0.245	0.122	0.0571	0.305	0.356	0.428	0.329	0.0545	0.631	0.611	0.343	0.0794	0.0532	0.967	0.994	0.936	0.17	0.0898
NCI-H2085	0.588	0.544	0.593	0.298	0.246	0.873	0.872	0.697	0.302	0.281	0.859	0.831	0.753	0.343	0.266	1.18	1.14	1.05	0.248	0.211
NCI-H2087	0.233	0.265	0.141	0.0621	0.0401	0.236	0.276	0.19	0.0648	0.0487	0.968	0.58	0.769	0.567	0.179	0.991	1.02	0.509	0.0888	0.0686
NCI-H2126	0.603	0.597	0.535	0.552	0.197	0.815	0.921	0.763	0.488	0.214	1.01	1	0.994	0.916	0.529	0.857	0.844	0.827	0.848	0.327
NCI-H2170	0.462	0.465	0.444	0.377	0.126	0.658	0.718	0.783	0.178	0.145	1.23	1.13	1.12	0.434	0.16	0.425	0.548	0.6	0.169	0.172
NCI-H2347	0.631	0.601	0.648	0.466	0.429	0.522	0.676	0.471	0.195	0.166	0.855	0.784	0.545	0.573	0.262	0.513	0.847	0.651	0.197	0.193
NCI-H2405	0.716	0.692	0.545	0.212	0.181	0.715	0.804	0.629	0.23	0.153	0.868	0.818	0.803	0.694	0.202	0.769	–	0.134	0.0865	0.113
